Data from PMC8383264, “Structural Characterization of the Reaction and Substrate Specificity Mechanisms of Pathogenic Fungal Acetyl-CoA Synthetases” (ACS Chemical Biology, 2021).

What was measured:
CnAcs1 = CnAcs1 (Cryptococcus neoformans, UniProt J9VFT1); test: Coupled continuous pyrophosphate detection assay (EnzChek) of ACS activity
C. immitis Acs1 = C. immitis Acs1 (Coccidioides immitis, UniProt J3KJC6); conditions: 37 °C
C. posadasii Acs1 = C. posadasii Acs1 (Coccidioides posadasii, UniProt C5PGB4); conditions: 37 °C
A. fumigatus Acs1 = molecular target: T1, A. fumigatus Acs1 (Aspergillus fumigatus, UniProt Q4WQ02); test: Coupled continuous pyrophosphate detection assay (EnzChek) of ACS activity; conditions: substrate Km; other substrates in excess; 37 °C; ±S.E.M.
T1 sequence (Q4WQ02 2-670): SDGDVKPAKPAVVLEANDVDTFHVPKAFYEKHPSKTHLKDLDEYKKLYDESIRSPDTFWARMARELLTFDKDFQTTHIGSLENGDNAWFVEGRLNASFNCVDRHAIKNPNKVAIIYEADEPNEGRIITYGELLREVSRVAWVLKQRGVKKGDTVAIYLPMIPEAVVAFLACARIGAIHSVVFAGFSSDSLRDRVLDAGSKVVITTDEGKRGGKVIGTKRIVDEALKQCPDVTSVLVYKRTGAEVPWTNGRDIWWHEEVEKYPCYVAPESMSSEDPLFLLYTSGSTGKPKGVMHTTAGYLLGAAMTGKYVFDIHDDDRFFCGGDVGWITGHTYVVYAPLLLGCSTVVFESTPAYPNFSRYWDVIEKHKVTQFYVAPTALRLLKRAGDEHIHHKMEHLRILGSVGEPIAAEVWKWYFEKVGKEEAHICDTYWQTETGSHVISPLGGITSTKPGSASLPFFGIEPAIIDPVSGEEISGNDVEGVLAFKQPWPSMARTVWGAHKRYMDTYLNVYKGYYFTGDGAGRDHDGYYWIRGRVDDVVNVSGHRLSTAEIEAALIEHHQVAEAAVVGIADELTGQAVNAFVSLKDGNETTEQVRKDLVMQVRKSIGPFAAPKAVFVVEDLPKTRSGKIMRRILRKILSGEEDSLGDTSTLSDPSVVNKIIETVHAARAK

C. albicans Acs1 = C. albicans Acs1 (Candida albicans, UniProt Q8NJN3); test: as above; conditions: 37 °C
S. cerevisiae Acs1 = molecular target: T2, S. cerevisiae Acs1 (Saccharomyces cerevisiae, UniProt Q01574); test: as above; conditions: 37 °C
T2 sequence (Q01574 1-713): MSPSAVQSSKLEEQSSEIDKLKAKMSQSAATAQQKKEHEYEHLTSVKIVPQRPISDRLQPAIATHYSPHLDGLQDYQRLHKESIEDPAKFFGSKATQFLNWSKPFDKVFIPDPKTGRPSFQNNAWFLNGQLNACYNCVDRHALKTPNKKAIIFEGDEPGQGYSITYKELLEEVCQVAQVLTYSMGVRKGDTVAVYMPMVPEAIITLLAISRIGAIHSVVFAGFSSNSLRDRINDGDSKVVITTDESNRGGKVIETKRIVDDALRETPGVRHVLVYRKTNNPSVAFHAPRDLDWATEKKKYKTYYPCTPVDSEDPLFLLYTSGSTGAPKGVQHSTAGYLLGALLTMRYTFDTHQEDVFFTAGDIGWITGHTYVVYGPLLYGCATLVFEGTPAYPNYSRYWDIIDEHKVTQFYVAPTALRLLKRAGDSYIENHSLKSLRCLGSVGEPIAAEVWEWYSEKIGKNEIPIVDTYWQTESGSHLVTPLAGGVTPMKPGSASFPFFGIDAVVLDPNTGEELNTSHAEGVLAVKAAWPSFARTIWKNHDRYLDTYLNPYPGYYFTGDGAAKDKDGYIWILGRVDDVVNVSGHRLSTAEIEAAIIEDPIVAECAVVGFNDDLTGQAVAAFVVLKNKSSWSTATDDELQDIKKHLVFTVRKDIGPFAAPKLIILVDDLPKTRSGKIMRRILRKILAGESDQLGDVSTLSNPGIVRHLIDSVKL

CnAcs1, sequence (J9VFT1 entry or part of it): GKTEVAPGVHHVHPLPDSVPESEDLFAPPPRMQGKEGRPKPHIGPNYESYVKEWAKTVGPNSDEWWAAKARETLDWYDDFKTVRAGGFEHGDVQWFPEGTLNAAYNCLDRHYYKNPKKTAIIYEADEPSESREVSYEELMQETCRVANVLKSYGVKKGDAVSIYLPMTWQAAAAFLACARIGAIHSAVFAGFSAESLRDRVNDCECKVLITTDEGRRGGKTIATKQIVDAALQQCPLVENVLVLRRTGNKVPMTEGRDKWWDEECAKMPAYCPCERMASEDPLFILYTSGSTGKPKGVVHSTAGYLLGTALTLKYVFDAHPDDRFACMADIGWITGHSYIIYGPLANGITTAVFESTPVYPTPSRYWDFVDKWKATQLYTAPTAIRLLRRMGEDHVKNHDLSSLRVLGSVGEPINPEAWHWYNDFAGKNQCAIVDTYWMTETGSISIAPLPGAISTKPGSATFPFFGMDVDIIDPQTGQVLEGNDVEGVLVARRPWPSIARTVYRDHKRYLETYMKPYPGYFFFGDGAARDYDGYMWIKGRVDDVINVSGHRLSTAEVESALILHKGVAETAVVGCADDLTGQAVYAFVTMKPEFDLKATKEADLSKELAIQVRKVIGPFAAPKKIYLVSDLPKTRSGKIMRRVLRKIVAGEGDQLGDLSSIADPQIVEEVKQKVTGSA
C. immitis Acs1, sequence (J3KJC6 2-691 limits assumed): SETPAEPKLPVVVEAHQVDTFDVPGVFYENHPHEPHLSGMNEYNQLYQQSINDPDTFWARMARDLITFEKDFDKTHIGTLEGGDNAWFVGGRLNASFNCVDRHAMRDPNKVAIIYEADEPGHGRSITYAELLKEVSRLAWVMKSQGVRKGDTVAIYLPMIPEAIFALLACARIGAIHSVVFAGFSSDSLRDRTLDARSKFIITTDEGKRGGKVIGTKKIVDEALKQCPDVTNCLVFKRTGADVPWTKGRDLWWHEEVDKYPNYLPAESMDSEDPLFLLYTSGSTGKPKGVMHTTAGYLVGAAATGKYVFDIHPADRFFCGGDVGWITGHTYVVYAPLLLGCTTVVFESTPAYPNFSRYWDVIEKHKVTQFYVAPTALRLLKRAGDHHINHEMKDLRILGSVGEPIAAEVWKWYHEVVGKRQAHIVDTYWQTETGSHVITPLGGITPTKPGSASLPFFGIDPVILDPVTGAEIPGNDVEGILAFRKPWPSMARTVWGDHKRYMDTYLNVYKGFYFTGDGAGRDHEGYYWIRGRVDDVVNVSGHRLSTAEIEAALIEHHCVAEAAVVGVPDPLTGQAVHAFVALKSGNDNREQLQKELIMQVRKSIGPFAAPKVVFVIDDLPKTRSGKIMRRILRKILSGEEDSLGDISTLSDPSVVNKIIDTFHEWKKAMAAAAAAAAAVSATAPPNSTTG
C. albicans Acs1, sequence (Q8NJN3 2-671 limits assumed): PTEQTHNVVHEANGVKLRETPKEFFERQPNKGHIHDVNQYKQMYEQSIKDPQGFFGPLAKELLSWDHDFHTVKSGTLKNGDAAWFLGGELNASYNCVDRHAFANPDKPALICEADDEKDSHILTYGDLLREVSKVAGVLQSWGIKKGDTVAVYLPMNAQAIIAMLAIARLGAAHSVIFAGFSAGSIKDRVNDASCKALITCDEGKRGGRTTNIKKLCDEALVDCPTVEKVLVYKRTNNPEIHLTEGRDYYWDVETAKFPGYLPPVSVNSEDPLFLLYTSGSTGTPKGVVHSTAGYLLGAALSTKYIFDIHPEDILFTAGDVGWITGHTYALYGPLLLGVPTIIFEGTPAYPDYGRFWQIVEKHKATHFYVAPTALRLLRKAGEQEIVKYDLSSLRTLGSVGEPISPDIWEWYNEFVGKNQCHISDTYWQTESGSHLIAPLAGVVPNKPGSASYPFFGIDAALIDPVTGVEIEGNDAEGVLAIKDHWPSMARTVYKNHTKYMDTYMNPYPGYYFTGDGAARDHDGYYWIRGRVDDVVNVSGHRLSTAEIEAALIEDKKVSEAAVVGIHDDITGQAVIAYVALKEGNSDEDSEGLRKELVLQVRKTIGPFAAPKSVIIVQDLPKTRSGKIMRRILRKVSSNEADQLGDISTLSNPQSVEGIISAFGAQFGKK
C. posadasii Acs1, sequence (C5PGB4 2-691 limits assumed): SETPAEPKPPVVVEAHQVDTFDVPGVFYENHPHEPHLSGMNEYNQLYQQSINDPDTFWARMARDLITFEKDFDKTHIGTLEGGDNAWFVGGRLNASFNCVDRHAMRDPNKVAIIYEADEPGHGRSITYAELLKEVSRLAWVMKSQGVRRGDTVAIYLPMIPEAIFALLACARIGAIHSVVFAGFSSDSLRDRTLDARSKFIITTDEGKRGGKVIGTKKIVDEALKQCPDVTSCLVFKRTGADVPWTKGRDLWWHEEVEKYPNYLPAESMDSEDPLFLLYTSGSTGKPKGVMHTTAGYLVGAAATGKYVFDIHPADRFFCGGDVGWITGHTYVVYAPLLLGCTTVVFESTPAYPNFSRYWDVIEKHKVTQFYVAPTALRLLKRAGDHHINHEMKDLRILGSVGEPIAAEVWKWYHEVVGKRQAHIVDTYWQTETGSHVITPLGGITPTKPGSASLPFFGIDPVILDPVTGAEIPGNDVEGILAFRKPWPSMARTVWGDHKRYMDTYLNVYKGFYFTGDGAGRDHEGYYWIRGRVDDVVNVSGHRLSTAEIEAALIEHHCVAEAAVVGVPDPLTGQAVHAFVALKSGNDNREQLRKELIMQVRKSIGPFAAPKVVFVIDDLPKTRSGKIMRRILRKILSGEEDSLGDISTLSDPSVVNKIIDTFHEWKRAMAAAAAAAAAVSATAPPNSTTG

CC(=O)O [acetate, reference compound]
utilization as substrate for CnAcs1 (CnAcs1; alternative acid substrates): optimum substrate
calculated binding energy ΔG (CnAcs1; calculated for substrate binding): -5.5 kcal/mol
Km (CnAcs1; substrate Km, other substrates in excess (ATP 2.5 mM, CoA 1 mM, sodium acetate 0.5 mM), 37 °C, ±S.E.M.): 130 ± 40 µM
Km (C. immitis Acs1): 32 ± 5 µM
Km (C. posadasii Acs1): 27 ± 2 µM
Km (A. fumigatus Acs1): 18 ± 2 µM
Km (C. albicans Acs1): 79 ± 7 µM
Km (S. cerevisiae Acs1): 63 ± 13 µM
